Experimental data: PubChem BioAssay AID1963825 (Molecular Pharmacology Branch, DTP, NCI, 2024)

Assay: Anticancer human tumor 997537-175-T-J1-PDC patient-derived colon adenocarcinoma cell line growth inhibition [POLQ]
Details: 997537-175-T-J1-PDC complex spheroid viability, combination with POLQ inhibitors; for IC50: curve of first compound; for viability, T/C: stronger effect = lower value
Method: Multicellular complex tumor spheroid response to Polymerase (POL) inhibitors (novobiocin, ART-558, RP6685) in combination with a variety of drugs and investigational agents in selected tumor cell lines
The POL inhibitors (novobiocin, ART-558, and RP6685) were evaluated both individually and in combination with standard of care and investigational anticancer small molecules within a complex spheroid model of solid tumors. . Complex spheroids include a stromal component modeled by human endothelial cells (HUVEC) and fibroblasts modeled by human mesenchymal stem cells (MSCs). The concentration ranges selected for each drug and investigational agent were based upon clinically achievable concentrations if the clinical Cmax of the agent was known.
Compounds. The drugs and investigational agents: novobiocin (NSC847541), ART-558 (NSC835418), RP-6685 (NSC848927), peposertib (NSC802822), ceralasertib (NSC780249), elimusertib (NSC800525), camonsertib (NSC841442), AZD-1390 (NSC803789), olaparib (NSC753686), talazoparib (NSC767125), rucaparib (NSC756644), sotorasib (NSC818433), MRTX-1133 (NSC836407), SN-38 (NSC673596), topotecan (NSC609699), epotoside (NSC141540), doxorubicin (NSC123127), gemcitabine (NSC613327), 5-fluorouracil (NSC19893), paclitaxel (NSC125973), vemurafenib (NSC761431), MSA-2 (NSC828583), SN-011 (NSC837082), adavosertib (NSC754352), prexasertib (NSC758257), carboplatin (NSC241240) and oxaliplatin (NSC266046), were obtained from the National Cancer Institute (NCI) Developmental Therapeutics Program Chemical Repository (21). The FDA-approved anticancer drug set is available from the Developmental Therapeutics Program at https://dtp.cancer.gov/organization/dscb/obtaining/. […] The stock solutions were prepared in dimethyl sulfoxide (DMSO, Sigma-Aldrich, St. Louis, MO, cat. D2650), except for the platinum compounds which were prepared in saline (Quality Biological, Gaithersburg, MD, cat. 114-055-101), at 800-fold the tested concentration and stored at -70 degrees C prior to their use. All drugs and investigational agents were tested over a range starting from a high concentration at or near the clinical Cmax and decreasing in half-log increments. If the clinical Cmax for an agent had not been determined, the highest concentration tested was 10 microM, except for SN-38, which was tested at a high concentration of 1 microM.
Cell Culture. All cells were maintained in an incubator at 37 degrees C and 5% CO2 with 95% humidity. The PDC lines were cultured according to standard operating procedures established by the NCI PDMR (https://pdmr.cancer.gov). Table 3 of the manuscript, lists the cell lines along with the number of the three cell types plated to form the mct-spheroids and media for tumor cell growth. After thawing, all PDC lines, except 997537-175-T-J1-PDC and 415267-285-R-J2-PDC, were cultured in Matrigel-coated flasks prepared with a working solution of 1X Ham's F-12 nutrient mix, without supplementation (Thermo Fisher Scientific, cat. 11765054), 100 U/mL penicillin-streptomycin (Thermo Fisher Scientific, cat. 15140122), and 2.5% Matrigel (Corning Inc., Corning, NY, cat. 354248) for the first three passages. The two PDC lines 997537-175-T-J1-PDC and 415267-285-R-J2-PDC were cultured on uncoated flasks. The 857933-349-R-J2-PDC line was cultured in 6C/Colon 1B media containing advanced DMEM/F-12 (Thermo Fisher Scientific, cat. 12634028), 10 mM HEPES (Thermo Fisher Scientific, cat. 15630080), 1X GlutaMAX supplement (Thermo Fisher Scientific, cat. 35050061), 0.1 mg/mL primocin (InvivoGen, San Diego, CA, cat. ant-pm-2), 10% defined fetal bovine serum, heat inactivated (HyClone Laboratories Inc., Logan, UT, cat. SH30070.03HI), 50% L-WRN conditioned media (ATCC, cat. CRL-3276), 1.25 mM N-Acetyl-L-cysteine (Sigma-Aldrich, cat. A9165), 10 mM nicotinamide (Sigma-Aldrich, cat. N0636), 1X B-27 supplement (Thermo Fisher Scientific, cat. 17504044), 1X N-2 supplement (Thermo Fisher Scientific, cat. […]
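Note: luminescence signal used as a surrogate for viable cells; spheroids exposed to drugs for seven days before readout.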

SMILES: C=CCn1c(=O)c2cnc(Nc3ccc(N4CCN(C)CC4)cc3)nc2n1-c1cccc(C(C)(C)O)n1 + COC1C(OC(N)=O)C(O)C(Oc2ccc3c(O)c(NC(=O)c4ccc(O)c(CC=C(C)C)c4)c(=O)oc3c2C)OC1(C)C
- IC50 (second compound 0.0316 µM): > 1000 nM
- IC50 (second compound 0.1 µM): > 1000 nM
- IC50 (second compound 0.316 µM): > 1000 nM
- IC50 (second compound 1 µM): > 1000 nM
- IC50 (second compound 3.16 µM): > 1000 nM
- IC50 (second compound 10 µM): > 1000 nM
- viability, T/C (second compound 0.0316 µM, first compound 0.00316 µM): 92.8%
- viability, T/C (second compound 0.0316 µM, first compound 0.01 µM): 102%
- viability, T/C (second compound 0.0316 µM, first compound 0.0316 µM): 105%
- viability, T/C (second compound 0.0316 µM, first compound 0.1 µM): 92.1%
- viability, T/C (second compound 0.0316 µM, first compound 0.316 µM): 105%
- viability, T/C (second compound 0.0316 µM, first compound 1 µM): 71%
- viability, T/C (second compound 0.1 µM, first compound 0.00316 µM): 115%
- viability, T/C (second compound 0.1 µM, first compound 0.01 µM): 106%
- viability, T/C (second compound 0.1 µM, first compound 0.0316 µM): 91.9%
- viability, T/C (second compound 0.1 µM, first compound 0.1 µM): 92.2%
- viability, T/C (second compound 0.1 µM, first compound 0.316 µM): 81.7%
- viability, T/C (second compound 0.1 µM, first compound 1 µM): 66.2%
- viability, T/C (second compound 0.316 µM, first compound 0.00316 µM): 88.5%
- viability, T/C (second compound 0.316 µM, first compound 0.01 µM): 101%
- viability, T/C (second compound 0.316 µM, first compound 0.0316 µM): 103%
- viability, T/C (second compound 0.316 µM, first compound 0.1 µM): 103%
- viability, T/C (second compound 0.316 µM, first compound 0.316 µM): 92.5%
- viability, T/C (second compound 0.316 µM, first compound 1 µM): 56.5%
- viability, T/C (second compound 1 µM, first compound 0.00316 µM): 103%
- viability, T/C (second compound 1 µM, first compound 0.01 µM): 98.6%
- viability, T/C (second compound 1 µM, first compound 0.0316 µM): 98.2%
- viability, T/C (second compound 1 µM, first compound 0.1 µM): 90.3%
- viability, T/C (second compound 1 µM, first compound 0.316 µM): 102%
- viability, T/C (second compound 1 µM, first compound 1 µM): 87.8%
- viability, T/C (second compound 3.16 µM, first compound 0.00316 µM): 115%
- viability, T/C (second compound 3.16 µM, first compound 0.01 µM): 93.9%
- viability, T/C (second compound 3.16 µM, first compound 0.0316 µM): 96.6%
- viability, T/C (second compound 3.16 µM, first compound 0.1 µM): 99.1%
- viability, T/C (second compound 3.16 µM, first compound 0.316 µM): 90.2%
- viability, T/C (second compound 3.16 µM, first compound 1 µM): 64.1%
- viability, T/C (second compound 10 µM, first compound 0.00316 µM): 98%
- viability, T/C (second compound 10 µM, first compound 0.01 µM): 82.5%
- viability, T/C (second compound 10 µM, first compound 0.0316 µM): 93.3%
- viability, T/C (second compound 10 µM, first compound 0.1 µM): 81.4%
- viability, T/C (second compound 10 µM, first compound 0.316 µM): 78.5%
- viability, T/C (second compound 10 µM, first compound 1 µM): 56.4%
